These are literature values, as cited in patent US11446274B2, “Use of dianhydrogalactitol or derivatives or analogs thereof for treatment of pediatric central nervous system malignancies” (DelMar Pharmaceuticals, Inc., priority 2015, dated 2022).

Like-named read-outs stand apart in the source and are kept apart here.

In series [1] the target is glycogen synthase kinase-3β (GSK-3β) (Homo sapiens, UniProt P49841). The conditions noted are these: cited from earlier work.
Series [2] deals with cells that are either MGMT-positive or MGMT-negative or MMR-proficient or MMR-deficient. The conditions noted are these: cited from earlier work.

Chain of glycogen synthase kinase-3β (GSK-3β) (P49841 whole entry, species assumed): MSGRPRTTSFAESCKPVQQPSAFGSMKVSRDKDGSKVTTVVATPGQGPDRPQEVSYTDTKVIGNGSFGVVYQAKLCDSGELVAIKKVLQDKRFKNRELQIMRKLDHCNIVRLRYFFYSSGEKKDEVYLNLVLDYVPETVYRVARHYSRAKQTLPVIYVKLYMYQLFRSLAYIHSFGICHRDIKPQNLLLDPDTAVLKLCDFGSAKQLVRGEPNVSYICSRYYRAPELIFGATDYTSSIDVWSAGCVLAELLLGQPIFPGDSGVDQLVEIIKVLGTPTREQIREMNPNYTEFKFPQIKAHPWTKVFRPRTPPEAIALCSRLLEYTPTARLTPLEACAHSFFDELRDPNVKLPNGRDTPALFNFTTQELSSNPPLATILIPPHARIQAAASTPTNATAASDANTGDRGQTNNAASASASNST

As for `CN1C(=O)/C(=C2/C(=O)Nc3ccccc32)c2ccccc21` [Meisoindigo, meisoindigo], the “concentration for inhibition of GSK-3β” value in series [1] was 5 to 50 nM.

As to `N.N.[Cl][Pt][Cl]` [cisplatin], the sensitivity entry in series [2] (MGMT Negative, MMR-Deficient) is reported as “Resistant”; in series [2] (MGMT Negative, MMR-Proficient), “Sensitive”; in series [2] (MGMT Positive, MMR-Deficient), “Resistant”; in series [2] (MGMT Positive, MMR-Proficient), “Sensitive”.
